Experimental findings from patent US20120220562A1, “Anti-Viral Compounds” (ABBOTT LABAORATORIES, priority 2011, published 2012) are described below.

Each structure is given as a SMILES string.

In this test the test system is HCV 1b-Con1 replicon. The test is described as follows: HCV 1b-Con1 replicon assay in the presence of 5% FBS. Format: cell-based. The settings on record: Hepatitis C virus. For orientation: A replicon is a self-replicating genome or part of one, used to study replication in cells.
As a reminder, the EC50 is the concentration that produces a half-maximal response. In the case of `COC(=O)N[C@H](C(=O)N1CCC[C@H]1c1nc2ccc([C@H]3CC[C@H](c4ccc5nc([C@@H]6CCCN6C(=O)[C@@H](NC(=O)OC)C(C)C)[nH]c5c4)N3c3ccc(OC4CCCC4)c(F)c3)cc2[nH]1)C(C)C` [Example 4.1, methyl {(2S)-1-[(2S)-2-{6-[(2R,5R)-1-[4-(cyclopentyloxy)-3-fluorophenyl]-5-{2-[(2S)-1-{(2S)-2-[(methoxycarbonyl)amino]-3-methylbutanoyl}pyrrolidin-2-yl]-1H-benzimidazol-6-yl}pyrrolidin-2-yl]-1H-benzimidazol-2-yl}pyrrolidin-1-yl]-3-methyl-1-oxobutan-2-yl}carbamate], the EC50 is below 0.1 nM.
The figure for `COC(=O)N[C@H](C(=O)N1CCC[C@H]1c1nc2cc([C@H]3CC[C@H](c4ccc5[nH]c([C@@H]6CCCN6C(=O)[C@@H](NC(=O)OC)C6CCOCC6)nc5c4)N3c3cc(F)c(N4CCC(c5ccccc5)CC4)c(F)c3)ccc2[nH]1)C(C)C` [Example 11.1, methyl [(1S)-2-[(2S)-2-{5-[(2R,5R)-1-[3,5-difluoro-4-(4-phenylpiperidin-1-yl)phenyl]-5-{2-[(2S)-1-{(2S)-2-[(methoxycarbonyl)amino]-3-methylbutanoyl}pyrrolidin-2-yl]-1H-benzimidazol-5-yl}pyrrolidin-2-yl]-1H-benzimidazol-2-yl}pyrrolidin-1-yl]-2-oxo-1-(tetrahydro-2H-pyran-4-yl)ethyl]carbamate] is below 0.1 nM.
The figure for `COC(=O)N[C@H](C(=O)N1CCC[C@H]1c1nc2cc([C@H]3CC[C@H](c4ccc5[nH]c([C@@H]6CCCN6C(=O)[C@@H](NC(=O)OC)C(C)C)nc5c4)N3c3ccc(-c4ccccc4)cc3)ccc2[nH]1)C(C)C` [Example 3.5, methyl {(2S)-1-[(2S)-2-{5-[(2R,5R)-1-(biphenyl-4-yl)-5-{2-[(2S)-1-{(2S)-2-[(methoxycarbonyl)amino]-3-methylbutanoyl}pyrrolidin-2-yl]-1H-benzimidazol-5-yl}pyrrolidin-2-yl]-1H-benzimidazol-2-yl}pyrrolidin-1-yl]-3-methyl-1-oxobutan-2-yl}carbamate] is below 0.1 nM.
The figure for `COC(=O)N[C@H](C(=O)N1CCC[C@H]1c1nc2cc([C@H]3CC[C@H](c4cc5nc([C@@H]6CCCN6C(=O)[C@@H](NC(=O)OC)C6CCOCC6)[nH]c5cc4F)N3c3cc(F)c(N4CCC(c5ccc(F)cc5)CC4)c(F)c3)c(F)cc2[nH]1)C1CCOCC1` [Example 3.53, dimethyl ([(2R,5R)-1-{3,5-difluoro-4-[4-(4-fluorophenyl)piperidin-1-yl]phenyl}pyrrolidine-2,5-diyl]bis{(6-fluoro-1H-benzimidazole-5,2-diyl)(2S)pyrrolidine-2,1-diyl[(1S)-2-oxo-1-(tetrahydro-2H-pyran-4-yl)ethane-2,1-diyl]})biscarbamate] is below 0.1 nM.
In the case of `COC(=O)N[C@H](C(=O)N1CCC[C@H]1c1nc2cc(F)c([C@H]3CC[C@H](c4cc5[nH]c([C@@H]6CCCN6C(=O)[C@@H](NC(=O)OC)C(C)C)nc5cc4F)N3c3cc(F)c(N4CC(C)CC(C)C4)c(F)c3)cc2[nH]1)C(C)C` (stereo partly drawn) [Example 2.16, methyl {(2S)-1-[(2S)-2-{5-[(5R)-1-[4-(3,5-dimethylpiperidin-1-yl)-3,5-difluorophenyl]-5-{6-fluoro-2-[(2S)-1-{(2S)-2-[(methoxycarbonyl)amino]-3-methylbutanoyl}pyrrolidin-2-yl]-1H-benzimidazol-5-yl}pyrrolidin-2-yl]-6-fluoro-1H-benzimidazol-2-yl}pyrrolidin-1-yl]-3-methyl-1-oxobutan-2-yl}carbamate], the EC50 is below 0.1 nM.
As for `COC(=O)N[C@H](C(=O)N1CCC[C@H]1c1nc2ccc([C@H]3CC[C@H](c4ccc5nc([C@@H]6CCCN6C(=O)[C@@H](NC(=O)OC)C(C)C)[nH]c5c4)N3c3cc(F)c(C4CC4)c(F)c3)cc2[nH]1)C(C)C` [Example 4.15, methyl {(2S)-1-[(2S)-2-{6-[(2R,5R)-1-(4-cyclopropyl-3,5-difluorophenyl)-5-{2-[(2S)-1-{(2S)-2-[(methoxycarbonyl)amino]-3-methylbutanoyl}pyrrolidin-2-yl]-1H-benzimidazol-6-yl}pyrrolidin-2-yl]-1H-benzimidazol-2-yl}pyrrolidin-1-yl]-3-methyl-1-oxobutan-2-yl}carbamate], the EC50 is below 0.1 nM.
The figure for `COC(=O)N[C@H](C(=O)N1CCC[C@H]1c1nc2cc([C@H]3CC[C@H](c4ccc5nc([C@@H]6CCCN6C(=O)[C@@H](NC(=O)OC)C(C)C)[nH]c5c4)N3c3cc(F)c(N4CCCC(c5ccccc5)C4)c(F)c3)ccc2[nH]1)C(C)C` (stereo partly drawn) [Example 4.32, methyl {(2S)-1-[(2S)-2-{5-[(2R,5R)-1-[3,5-difluoro-4-(3-phenylpiperidin-1-yl)phenyl]-5-{2-[(2S)-1-{(2S)-2-[(methoxycarbonyl)amino]-3-methylbutanoyl}pyrrolidin-2-yl]-1H-benzimidazol-6-yl}pyrrolidin-2-yl]-1H-benzimidazol-2-yl}pyrrolidin-1-yl]-3-methyl-1-oxobutan-2-yl}carbamate] is below 0.1 nM; for `COC(=O)N[C@H](C(=O)N1CCC[C@H]1c1nc2cc([C@H]3CC[C@H](c4ccc5[nH]c([C@@H]6CCCN6C(=O)[C@@H](NC(=O)OC)C(C)C)nc5c4)N3c3cc(F)c(N4CCN(c5ccccc5)CC4)c(F)c3)ccc2[nH]1)C(C)C` [Example 4.58, methyl {(2S)-1-[(2S)-2-{5-[(2R,5R)-1-[3,5-difluoro-4-(4-phenylpiperazin-1-yl)phenyl]-5-{2-[(2S)-1-{(2S)-2-[(methoxycarbonyl)amino]-3-methylbutanoyl}pyrrolidin-2-yl]-1H-benzimidazol-5-yl}pyrrolidin-2-yl]-1H-benzimidazol-2-yl}pyrrolidin-1-yl]-3-methyl-1-oxobutan-2-yl}carbamate] it is below 0.1 nM.
The figure for `COC(=O)N[C@H](C(=O)N1CCC[C@H]1c1nc2cc([C@H]3CC[C@H](c4cc5nc([C@@H]6CCCN6C(=O)[C@@H](NC(=O)OC)[C@@H](C)OC)[nH]c5cc4F)N3c3cc(F)c(N4CCC(c5ccc(F)cc5)CC4)c(F)c3)c(F)cc2[nH]1)[C@@H](C)OC` [Example 3.52, methyl {(2S,3R)-1-[(2S)-2-{5-[(2R,5R)-1-{3,5-difluoro-4-[4-(4-fluorophenyl)piperidin-1-yl]phenyl}-5-(6-fluoro-2-{(2S)-1-[N-(methoxycarbonyl)-O-methyl-L-threonyl]pyrrolidin-2-yl}-1H-benzimidazol-5-yl)pyrrolidin-2-yl]-6-fluoro-1H-benzimidazol-2-yl}pyrrolidin-1-yl]-3-methoxy-1-oxobutan-2-yl}carbamate] is below 0.1 nM; for `COC(=O)N[C@H](C(=O)N1CCC[C@H]1c1nc2ccc([C@H]3CC[C@H](c4ccc5nc([C@@H]6CCCN6C(=O)[C@@H](NC(=O)OC)C(C)C)[nH]c5c4)N3c3cc(F)c(N4CC(C)CC(C)C4)c(F)c3)cc2[nH]1)C(C)C` (stereo partly drawn) [Example 5.7, methyl {(2S)-1-[(2S)-2-{6-[(2R,5R)-1-[4-(3,5-dimethylpiperidin-1-yl)-3,5-difluorophenyl]-5-{2-[(2S)-1-{(2S)-2-[(methoxycarbonyl)amino]-3-methylbutanoyl}pyrrolidin-2-yl]-1H-benzimidazol-6-yl}pyrrolidin-2-yl]-1H-benzimidazol-2-yl}pyrrolidin-1-yl]-3-methyl-1-oxobutan-2-yl}carbamate] it is below 0.1 nM; for `COC(=O)N[C@H](C(=O)N1[C@H](c2nc3cc([C@H]4CC[C@H](c5ccc6[nH]c([C@@H]7C[C@@H]8CCC[C@@H]8N7C(=O)[C@@H](NC(=O)OC)C(C)C)nc6c5)N4c4cc(F)c(N5CCC(c6ccccc6)CC5)c(F)c4)ccc3[nH]2)C[C@@H]2CCC[C@@H]21)C(C)C` [Example 3.28, methyl {(2S)-1-[(2S,3aS,6aS)-2-{5-[(2R,5R)-1-[3,5-difluoro-4-(4-phenylpiperidin-1-yl)phenyl]-5-{2-[(2S,3aS,6aS)-1-{(2S)-2-[(methoxycarbonyl)amino]-3-methylbutanoyl}octahydrocyclopenta[b]pyrrol-2-yl]-1H-benzimidazol-5-yl}pyrrolidin-2-yl]-1H-benzimidazol-2-yl}hexahydrocyclopenta[b]pyrrol-1(2H)-yl]-3-methyl-1-oxobutan-2-yl}carbamate] it is below 0.1 nM.
In the case of `COC(=O)N[C@H](C(=O)N1CCC[C@H]1c1nc2ccc([C@H]3CC[C@H](c4ccc5nc([C@@H]6CCCN6C(=O)[C@@H](NC(=O)OC)C(C)C)[nH]c5c4)N3c3cc(F)c(N4CCC(C)CC4)c(F)c3)cc2[nH]1)C(C)C` [Example 2.9, methyl {(2S)-1-[(2S)-2-{6-[(2R,5R)-1-[3,5-difluoro-4-(4-methylpiperidin-1-yl)phenyl]-5-{2-[(2S)-1-{(2S)-2-[(methoxycarbonyl)amino]-3-methylbutanoyl}pyrrolidin-2-yl]-1H-benzimidazol-6-yl}pyrrolidin-2-yl]-1H-benzimidazol-2-yl}pyrrolidin-1-yl]-3-methyl-1-oxobutan-2-yl}carbamate], the EC50 is below 0.1 nM.
As for `COC(=O)N[C@H](C(=O)N1CCC[C@H]1c1nc2cc([C@H]3CC[C@H](c4cc5nc([C@@H]6CCCN6C(=O)[C@@H](NC(=O)OC)C(C)C)[nH]c5cc4F)N3c3cc(F)c(N4CCC5(CC4)CC5)c(F)c3)c(F)cc2[nH]1)C(C)C` [Example 6.12, methyl {(2S)-1-[(2S)-2-{5-[(2R,5R)-1-[4-(6-azaspiro[2.5]oct-6-yl)-3,5-difluorophenyl]-5-{6-fluoro-2-[(2S)-1-{(2S)-2-[(methoxycarbonyl)amino]-3-methylbutanoyl}pyrrolidin-2-yl]-1H-benzimidazol-5-yl}pyrrolidin-2-yl]-6-fluoro-1H-benzimidazol-2-yl}pyrrolidin-1-yl]-3-methyl-1-oxobutan-2-yl}carbamate], the EC50 was below 0.1 nM.
Then `COC(=O)N[C@H](C(=O)N1CCC[C@H]1c1nc2cc([C@@H]3CC[C@@H](c4ccc5[nH]c([C@@H]6CCCN6C(=O)[C@@H](NC(=O)OC)C(C)C)nc5c4)N3c3ccc(N4CCCCC4)c(F)c3)ccc2[nH]1)C(C)C` [Example 3.15, methyl {(2S)-1-[(2S)-2-{5-[(2S,55)-1-[3-fluoro-4-(piperidin-1-yl)phenyl]-5-{2-[(2S)-1-{(2S)-2-[(methoxycarbonyl)amino]-3-methylbutanoyl}pyrrolidin-2-yl]-1H-benzimidazol-5-yl}pyrrolidin-2-yl]-1H-benzimidazol-2-yl}pyrrolidin-1-yl]-3-methyl-1-oxobutan-2-yl}carbamate], with below 0.1 nM.
